In patent publication US20120165319A1, “INHIBITORS OF INTERLEUKIN-1 BETA CONVERTING ENZYME” (VERTEX PHARMACEUTICALS INCORPORATED, priority 1995, published 2012) one finds Ki and IC50 data, which are given here for 21 compounds.

One assay deals with T1, ICE (Homo sapiens, UniProt P29466).
T1 sequence (P29466 120-297 limits assumed): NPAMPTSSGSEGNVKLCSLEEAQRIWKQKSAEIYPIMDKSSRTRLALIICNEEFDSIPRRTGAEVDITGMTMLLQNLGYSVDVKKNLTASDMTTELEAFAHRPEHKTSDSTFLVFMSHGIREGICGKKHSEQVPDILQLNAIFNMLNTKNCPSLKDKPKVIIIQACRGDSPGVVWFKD
T1 sequence (P29466 317-404 limits assumed): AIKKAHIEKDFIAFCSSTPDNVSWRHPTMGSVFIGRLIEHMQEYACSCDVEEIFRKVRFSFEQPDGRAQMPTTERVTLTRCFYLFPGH
The assay can be described thus: Enzyme assay with UV-visible substrate (visible ICE assay, Succinyl-Tyr-Val-Ala-Asp-pNitroanilide). It is filed as biochemical. In a few lines: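 Colorimetric caspase-1 activity: 15 min enzyme-inhibitor preincubation (RT), then Suc-Tyr-Val-Ala-Asp-pNA; 405-603 nm kinetics, 20 min, 37° C. Ki from rate fitting.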

The subject of another assay is IL-1β, human whole blood. The assay can be described thus: Whole blood assay for IL-1β production. It is filed as cell-based. The conditions noted are these: read-out: Whole human blood IC50. The protocol:
The whole blood assay is a simple method for measuring the production of IL-1b (or other cytokines) and the activity of potential inhibitors. The complexity of this assay system, with its full complement of lymphoid and inflammatory cell types, spectrum of plasma proteins and red blood cells is an ideal in vitro representation of human in vivo physiologic conditions.
Pyrogen-free syringes (˜30 cc) Pyrogen-free sterile vacuum tubes containing lyophilized Na2EDTA (4.5 mg/10 ml tube) Human whole blood sample (˜30-50 cc) 1.5 ml eppendorf tubes Test compound stock solutions (˜25 mM in DMSO or other solvent) Endotoxin-free sodium chloride solution (0.9%) and HBSS Lipopolysaccharide (Sigma; Cat. # L-3012) stock solution at 1 mg/ml in HBSS
IL-1β ELISA Kit (R & D Systems; Cat # DLB50)
TNFα ELISA Kit (R & D Systems; Cat # DTA50)
Whole Blood Assay Experimental Procedure:
Set incubator or water bath at 30° C. Aliquot 0.25 ml of blood into 1.5 ml eppendorf tubes. Note: be sure to invert the whole blood sample tubes after every two aliquots. Differences in replicates may result if the cells sediment and are not uniformly suspended. Use of a positive displacement pipette will also minimize differences between replicate aliquots.
Prepare drug dilutions in sterile pyrogen-free saline by serial dilution. A dilution series which brackets the apparent Ki for a test compound determined in an ICE inhibition assay is generally used for the primary compound screen.
Add 25 μl test compound dilution or vehicle control and gently mix the sample. Then add 5.0 μl LPS solution (250 ng/ml stocked prepared fresh: 5.0 ng/ml final concentration LPS), and mix again. Incubate the tubes at 30° C. in a water bath for 16-18 hr with occasional mixing. Alternatively, the tubes can be placed in a rotator set at 4 rpm for the same incubation period. This assay should be set up in duplicate or triplicate with the following controls: negative control—no LPS; positive control—no test inhibitor; vehicle control—the highest concentration of DMSO or compound solvent used in the experiment. Additional saline is added to all control tubes to normalize volumes for both control and experimental whole blood test samples
After the incubation period, whole blood samples are centrifuged for 10 minutes at ˜2000 rpm in the microfuge, plasma is transferred to a fresh microfuge tube and centrifuged at 1000×g to pellet residual platelets if necessary. Plasma samples may be stored frozen at −70° C. prior to assay for cytokine levels by ELISA.
We have used R & D Systems (614 McKinley Place N.E. Minneapolis, Minn. 55413) Quantikine kits for measurement of IL-1β and TNF-α. The assays are performed according to the manufacturer's directions.
We have observed IL-1β levels of ˜1-5 ng/ml in positive controls among a range of individuals. A 1:200 dilution of plasma for all samples has been sufficient in our experiments for ELISA results to fall on the linear range of the ELISA standard curves. It may be necessary to optimize standard dilutions if you observe differences in the whole blood assay. Nerad, J. L. et al., J. Leukocyte Biol., 52, pp. 687-692 (1992).

The mark [1] stands for this setting: Homo sapiens, * = values obtained upon reassay.

Where two headings read alike, the source gives them in different places.

On to `COc1c(Cl)cc(C(=O)N[C@H]2CN(C(=O)CO)c3ccccc3N(CC(=O)N[C@H](C=O)CC(=O)O)C2=O)cc1Cl` [Compound 918], for which the affinity at ICE (Table 17) corresponds to a Ki of 7 nM. Also, in the assay with IL-1β, human whole blood (Homo sapiens, Table 17), the IC50 worked out at 1150 nM.

For `CC(=O)N(C)c1ccc(C(=O)N[C@H]2CCC(=O)N3CCC[C@@H](C(=O)N[C@H](C=O)CC(=O)O)N3C2=O)cc1` [Compound 448], at ICE (Table 5), the Ki came out at 130 nM. In addition, the half-inhibitory concentration (IC50) with IL-1β, human whole blood (setting [1]) turned out to be 4000 nM.

As to `CC(=O)OCC(=O)N1C[C@H](NC(=O)c2ccccc2)C(=O)N(CC(=O)N[C@H]2CC(=O)OC2OCc2ccccc2)c2ccccc21` (mixture of isomers) [Compound 682, (3S)-2-Oxo-3-benzoylamino-5-(2-acetoxy)acetyl-N-[(2RS,3S)-benzyloxy-5-oxo-tetrahydrofuran-3-yl]-2,3,4,5-tetrahydro-1H-1,5-benzodiazepine-1-acetamide], the IC50 with IL-1β, human whole blood (Homo sapiens, Table 17) is 1300 nM.

`Cc1cc(C(=O)N[C@H]2CN(C(=O)CO)c3ccccc3N(CC(=O)NC3CC(=O)OC3OCc3ccccc3)C2=O)cc(C)c1O` (stereo partly drawn) [Compound 695c, (3S)-2RS-Oxo-3-(3,5-dimethyl-4-hydroxybenzoyl)amino-5-hydroxyacetyl-N-(2-benzyloxy-5-oxo-tetrahydrofuran-3-yl)-2,3,4,5-tetrahydro-1H-1,5-benzodiazepine-1-acetamide]: the IC50 in the assay on IL-1β, human whole blood (Table 17) turned out to be 2500 nM.

Compound `Nc1c(Cl)cc(C(=O)N[C@H]2CN(C(=O)CO)c3ccccc3N(CC(=O)N[C@H](C=O)CC(=O)O)C2=O)cc1Cl` [Compound 697] displayed a Ki on ICE (Table 27) of 1.8 nM. In the assay with IL-1β, human whole blood (Homo sapiens, Table 27), the IC50 turned out to be 5000 nM.

Turning to `COc1cc(C(=O)N[C@H]2CN(C(=O)CO)c3ccccc3N(CC(=O)N[C@H](C=O)CC(=O)O)C2=O)cc(OC)c1O` [Compound 732], the affinity on ICE (Table 27), expressed as Ki, was 5 nM. Further, the IC50 in the assay on IL-1β, human whole blood (Homo sapiens, Table 27) amounted to 1800 nM.

At ICE (Table 27), `O=C[C@H](CC(=O)O)NC(=O)CN1C(=O)[C@@H](NC(=O)c2nccc3ccccc23)CN(C(=O)Cc2cccnc2)c2ccccc21` [Compound 734] came in with a Ki of 9 nM. Moreover, the IC50 with IL-1β, human whole blood (Homo sapiens, Table 27) was 6000 nM.

On ICE (Table 5), `O=C[C@H](CC(=O)O)NC(=O)[C@@H]1CCCN2C(=O)CC[C@H](NC(=O)c3ncc[nH]3)C(=O)N12` [Compound 445] showed a Ki of 135 nM. The IC50 in the assay with IL-1β, human whole blood (setting [1]) stood at 4000 nM.

Compound `CC(=O)N[C@@H](CC(=O)O)C(=O)N[C@H]1CN(C(=O)CO)c2ccccc2N(CC(=O)N[C@H](C=O)CC(=O)O)C1=O` [Compound 730] came in with an inhibition constant (Ki) at ICE (Table 27) of 90 nM. For the same compound, the concentration for half-maximal inhibition (IC50) in the assay with IL-1β, human whole blood (Homo sapiens, Table 27) came to 8000 nM.

As to `COCC(=O)N1C[C@H](NC(=O)c2cc(C)c(O)c(C)c2)C(=O)N(CC(=O)N[C@H]2CC(=O)OC2OCc2ccccc2)c2ccccc21` (mixture of isomers) [Compound 688b, (3S)-2-Oxo-3-(3,5-dimethyl-4-hydroxybenzoyl)amino-5-methoxyacetyl-N-[(2RS,3S)-benzyloxy-5-oxo-tetrahydrofuran-3-yl]-2,3,4,5-tetrahydro-1H-1,5-benzodiazepine-1-acetamide], the IC50 in the assay on IL-1β, human whole blood (Homo sapiens, Table 17) stood at 1300 nM.

On to `COc1c(Cl)cc(C(=O)N[C@H]2CN(C(C)=O)c3ccccc3N(CC(=O)N[C@H](C=O)CC(=O)O)C2=O)cc1Cl` [Compound 669, (3S)-3-[(3S)-2-Oxo-3-(3,5-dichloro-4-methoxybenzoyl)amino-5-acetyl-2,3,4,5-tetrahydro-1H-1,5-benzodiazepine-1-acetylamino]-4-oxo-butyric acid], for which affinity at ICE (Table 17) was put at a Ki of 14 nM. In the assay with IL-1β, human whole blood (Homo sapiens, Table 17), the half-maximal inhibitory concentration (IC50) worked out at 10000 nM.

For `COC(=O)N1C[C@H](NC(=O)c2cc(C)c(O)c(C)c2)C(=O)N(CC(=O)N[C@H](C=O)CC(=O)O)c2ccccc21` [Compound 723], the inhibition constant (Ki) on ICE (Table 27) amounted to 2.3 nM. For the same compound, in the assay with IL-1β, human whole blood (Homo sapiens, Table 27), the half-maximal inhibitory concentration (IC50) amounted to 2000 nM.

As to `O=C[C@H](CC(=O)O)NC(=O)[C@@H]1CCCN2C(=O)CC[C@H](NC(=O)c3cnns3)C(=O)N12` [Compound 446], on ICE (Table 5), the affinity, expressed as Ki, was 62 nM. In addition, the IC50 with IL-1β, human whole blood (setting [1]) is 3000 nM.

For the compound `CCOC(=O)C(=O)N1C[C@H](NC(=O)c2cc(C)c(O)c(C)c2)C(=O)N(CC(=O)N[C@H](C=O)CC(=O)O)c2ccccc21` [Compound 729], affinity on ICE (Table 27) was put at a Ki of 28 nM. The IC50 in the assay on IL-1β, human whole blood (Homo sapiens, Table 27) was 2800 nM.

Regarding `CCOC1OC(=O)C[C@@H]1NC(=O)CN1C(=O)[C@@H](NC(=O)c2cc(C)c(O)c(C)c2)CN(C(=O)CO)c2ccccc21` (mixture of isomers) [Compound 692b, (3S)-2-Oxo-3-(3,5-dimethyl-4-hydroxybenzoyl)amino-5-hydroxyacetyl-N-[(2RS,3S)-ethoxy-5-oxo-tetrahydrofuran-3-yl]-2,3,4,5-tetrahydro-1H-1,5-benzodiazepine-1-acetamide], the concentration for half-maximal inhibition (IC50) in the assay with IL-1β, human whole blood (Table 17) is 1800 nM.

With `CCOC1OC(=O)C[C@@H]1NC(=O)[C@@H]1CCCN2C(=O)CC[C@H](NC(=O)c3nccc4ccccc34)C(=O)N12` (mixture of isomers) [Compound 550q, [1S,9S(2RS,3S)]N-(2-Ethoxy-5-oxotetrahydrofuran-3-yl)-6,10-dioxo-9-(isoquinolin-1-oylamino)-1,2,3,4,7,8,9,10-octahydro-6-H-pyridazino[1,2-a][1,2]diazepine-1-carboxamide], the IC50 in the assay on IL-1β, human whole blood (Table 17) came out at 700 nM.

As for `CN(C)c1cccc(C(=O)N[C@H]2CCC(=O)N3CCC[C@@H](C(=O)N[C@H]4CC(=O)OC4OCc4ccccc4)N3C2=O)c1` (mixture of isomers) [Compound 213g, [1S,9S (2RS,3S)]9-[(3-Dimethylaminobenzoyl)amino]-6,10-dioxo-1,2,3,4,7,8,9,10-octahydro-N-(2-Benzyloxy-5-oxotetrahydrofuran-3-yl)-6H-pyridazino[1,2-a][1,2]diazepine-1-carboxamide], in the assay with IL-1β, human whole blood (Table 17), the IC50 amounted to 2200 nM.

For the compound `COCC(=O)N1C[C@H](NC(=O)c2cc(Cl)c(O)c(Cl)c2)C(=O)N(CC(=O)N[C@H]2CC(=O)OC2OCc2ccccc2)c2ccccc21` (mixture of isomers) [Compound 688a, (3S)-2-Oxo-3-(3,5-dichloro-4-hydroxybenzoyl)amino-5-methoxyacetyl-N-[(2RS,3S)-benzyloxy-5-oxo-tetrahydrofuran-3-yl]-2,3,4,5-tetrahydro-1H-1,5-benzodiazepine-1-acetamide], in the assay on IL-1β, human whole blood (Homo sapiens, Table 17), the IC50 came out at 3000 nM.

Turning to `Cc1cc(C(=O)N[C@H]2CN(C(=O)CO)c3ccccc3N(CC(=O)N[C@H]3CC(=O)OC3OCc3ccccc3)C2=O)cc(C)c1O` (mixture of isomers) [Compound 690a, (3S)-2-Oxo-3-(3,5-dimethyl-4-hydroxybenzoyl)amino-5-hydroxyacetyl-N-[(2RS,3S)-benzyloxy-5-oxo-tetrahydrofuran-3-yl]-2,3,4,5-tetrahydro-1H-1,5-benzodiazepine-1-acetamide], in the assay on IL-1β, human whole blood (Homo sapiens, Table 17), the half-inhibitory concentration (IC50) is 1600 nM.

Turning to `CC(=O)N1C[C@H](NC(=O)c2cc(C)c(O)c(C)c2)C(=O)N(CC(=O)N[C@H]2CC(=O)OC2OCc2ccccc2)c2ccccc21` (mixture of isomers) [Compound 670, (3S)-2-Oxo-3-(3,5-dimethyl-4-hydroxybenzoyl)amino-5-acetyl-N-[(2RS,3S)-benzyloxy-5-oxo-tetrahydrofuran-3-yl]-2,3,4,5-tetrahydro-1H-1,5-benzodiazepine-1-acetamide], the IC50 in the assay with IL-1β, human whole blood (Homo sapiens, Table 17) was 4500 nM.

Regarding `COc1cccc(OC)c1C(=O)C(=O)N[C@H]1CN(C(=O)CO)c2ccccc2N(CC(=O)N[C@H]2CC(=O)OC2OCc2ccccc2)C1=O` (stereo partly drawn) [Compound 677, (3S)-2-Oxo-3-(1,6-dimethoxybenzoylformyl)amino-5-(2-hydroxy)acetyl-N-[(2RS,3S)-benzyloxy-5-oxo-tetrahydrofuran-3-yl]-2,3,4,5-tetrahydro-1H-1,5-benzodiazepine-1-acetamide], in the assay with IL-1β, human whole blood (Homo sapiens, Table 17), the IC50 came out at 610 nM.
